US12156871B2, “Substituted azacycles as muscarinic M1 receptor positive allosteric modulators” (SUVEN LIFE SCIENCES LIMITED, priority 2017, dated 2024)

Key:
[1] = Rodent pharmacokinetic study; assay type: in vivo, Male Wistar rats; details: rat; for AUC(0-t) / clearance / half-life / Cmax: male, Wistar, plasma; for F: oral 3 mg/kg vs i.v. 1 mg/kg
Protocol: Male Wistar rats (260±50 grams) were used as experimental animals. Animals were housed individually in polypropylene cage. Two days prior to study, male Wistar rats were anesthetized with isoflurane for surgical placement of jugular vein catheter. Rats were randomly divided for oral (3 mg/kg) and intravenous (i.v) (1 mg/kg) dosing (n=3/group) and fasted overnight before oral dosing (p.o.). However, rats allocated to intravenous (i.v.) dosing food and water was provided ad libitum.
At pre-determined point, blood was collected through jugular vein and replenished with an equivalent volume of normal saline. Collected blood was transferred into a labeled eppendorf tube containing 10 μL of heparin as an anticoagulant. Typically blood samples were collected at following time points: 0.08, 0.25, 0.5, 1, 2, 4, 6, 8, and 24 h post dose. Blood was centrifuged at 4000 rpm for 10 minutes. Plasma was separated and stored frozen at −80° C. until analysis. The concentrations of the test compounds were quantified in plasma by qualified LC-MS/MS method using suitable extraction technique. The test compounds were quantified in the calibration range around 1-1000 ng/mL in plasma. Study samples were analyzed using calibration samples in the batch and quality control samples spread across the batch.
Pharmacokinetic parameters Cmax, AUCt, T1/2, clearance and bioavailability (F) were calculated by non-compartmental model using standard non-compartmental model by using Phoenix WinNonlin 6.0.2 or 6.0.3 version Software package and the results are tabulated below.

[2] = Protein binding assay (HT dialysis), rat plasma; assay type: in vitro ADME; details: pH 7.4, Mean ± SEM, n = 3, read-out: Fu Plasma
Protocol: (§1) Unbound fractions of test compounds in plasma, brain homogenate and liver microsomes were determined using high-throughput dialysis (HT dialysis). Briefly, dialysis membranes were soaked in deionized water for 20 minutes and then in deionized water with 30% ethanol for 15 minutes and finally in phosphate buffer until use. Membranes were rinsed in phosphate buffer before assembling. The membranes were layered between teflon bars of dialysis assembly. Stock solutions of test compound/comparative compound were prepared at 10 mM in DMSO, diluted to 1 mM in acetonitrile and further diluted to 100 μM in mixture of water and acetonitrile (1:1 v/v). Human plasma (pool of 3) was prepared from human blood (3 donors) by centrifuging at 4000 rpm for 10 min at 4° C. Rat and dog blood were obtained on the day of the study and centrifuged to obtain plasma. Rat brains were isolated, cleaned and homogenized with 2 volumes of buffer (3 fold dilution). Liver microsomes were prepared at 0.5 mg/mL in phosphate buffer (100 mM, pH 7.4). The dialysate chambers were loaded with 150 μL of 100 mM phosphate buffer (pH 7.4) in triplicates. The matrix chambers were loaded with 150 μL of the plasma or brain homogenate or microsomal suspension spiked with test compound/comparative compound at a final concentration of 1 μM. 50 μL of the sample was removed from both the chambers at 0 h. The plate was sealed and incubated at 37° C. for 6 h at 100 rpm. After 6 h, 50 μL of the sample was removed from both the chambers. Equal volumes of buffer or human plasma/microsomal suspension were added to the plasma/microsomal and buffer samples respectively to create identical sample matrices for analysis. The samples were precipitated with 150 μL of acetonitrile containing fluoxetine as an internal standard. All the samples were centrifuged at 10000 rpm for 10 minutes at 4° C.

[3] = Protein binding assay (HT dialysis), human plasma; assay type: in vitro ADME; details: pH 7.4, Mean ± SEM, n = 3, read-out: Fu Plasma (converted)
Protocol: as §1

[4] = Protein binding assay (HT dialysis), rat brain homogenate; assay type: in vitro ADME; details: pH 7.4, Mean ± SEM, n = 3, read-out: Fu Brain
Protocol: as §1

[5] = Protein binding assay (HT dialysis), rat liver microsomes; assay type: in vitro ADME; details: pH 7.4, Rat liver microsomes 0.5 mg/mL, Mean ± SEM, n = 3, read-out: Fu Microsomes
Protocol: as §1

[6] = Protein binding assay (HT dialysis), dog liver microsomes; assay type: in vitro ADME; details: pH 7.4, Dog liver microsomes 0.5 mg/mL, Mean ± SEM, n = 3, read-out: Fu Microsomes (converted)
Protocol: as §1

[7] = Object recognition task model; assay type: in vivo, Male Wistar rats; details: rat, 3 mg/kg, p.o.; for Exploration time mean ± S.E.M, Familiar object / Exploration time mean ± S.E.M, Novel object: choice trial 24 h after T1
Protocol: The cognition enhancing properties of compounds of this invention were estimated by using this model.
Male Wistar rats (8-10 weeks old) were used as experimental animals. Four animals were housed in each cage. Animals were kept on 20% food deprivation from a day prior to experimentation. Water was provided ad libitum throughout the experiment. Animals were maintained on a 12 h light/dark cycle in temperature and humidity controlled room. The experiment was carried out in an circular made up of acrylic. Rats were habituated to individual arenas for up to 1 h in the absence of any objects on day 1.
One group of 12 rats received vehicle and another set of animals received compound of the formula (I), before the familiar (T1) and choice (T2) trials. During the familiarization phase, (T1), the rats were placed individually in the arena for 3 minutes, in which two identical objects (a1 and a2) were positioned 10 cm from the wall. 24 h after T1, trial for long-term memory test was performed. The same rats were placed in the same arena as they were placed in T1 trial. During the choice phase (T2) rats were allowed to explore the arena for 3 minutes in presence of a copy of familiar object (a3) and one novel object (b). During the T1 and T2 trial, explorations of each object (defined as sniffing, licking, chewing or having moving vibrissae whilst directing the nose towards the object at a distance of less than 1 cm) were recorded using stopwatch. • T1 is the total time spent exploring the familiar objects (a1+a2). • T2 is the total time spent exploring the familiar object and novel object (a3+b).
The object recognition test was performed as described by Ennaceur, A., Delacour, J., 1988, A new one-trial test for neurobiological studies of memory in rats—Behavioural data, Behav. Brain Res., 31, 47-59.

SMILES	AUC(0-t) ([1]; iv, i.v. 1 mg/kg) [ng·h/mL]	clearance ([1]; iv, i.v. 1 mg/kg) [mL/min/kg]	half-life ([1]; iv, i.v. 1 mg/kg) [min]	AUC(0-t) ([1]; oral 3 mg/kg) [ng·h/mL]	Cmax ([1]; oral 3 mg/kg) [ng/mL]	half-life ([1]; oral 3 mg/kg) [min]	F [1] [%]	fraction unbound at 6 h, 1 μM [2]	fraction unbound at 6 h, 1 μM [3]	fraction unbound at 6 h, 1 μM [4]	fraction unbound at 6 h, 1 μM [5]	fraction unbound at 6 h, 1 μM [6]	Inference [7]	Exploration time mean ± S.E.M, Familiar object [7] [s]	Exploration time mean ± S.E.M, Novel object [7] [s]
COc1ccc(Cc2cc3c(nc2C)CN([C@H]2CCCC[C@@H]2O)C3=O)cc1 [Example 6, 6-(1S,2S-2-Hydroxycyclohexyl)-2-methyl-3-(4-methoxybenzyl)-6,7-dihydropyrrolo[3,4-b]pyridin-5-one]	1750 ± 312	9.3 ± 2	114 ± 30	3520	1470 ± 26.5	78 ± 6	67 ± 5	0.113 ± 0.003	0.124	0.123 ± 0.009	0.798 ± 0.12	0.906	Active	7.27 ± 1.31	15.9 ± 2.47
COc1cccc(Cc2cc3c(nc2C)CN([C@H]2CCCC[C@@H]2O)C3=O)c1 [Example 38, 6-(1S,2S-2-Hydroxycyclohexyl)-2-methyl-3-(3-methoxybenzyl)-6,7-dihydropyrrolo[3,4-b]pyridin-5-one]	662 ± 33	25.1 ± 1.2	30	1010	861 ± 168	36 ± 6	51 ± 17	0.103 ± 0.003	0.192	0.084 ± 0.002	0.826 ± 0.03	0.843	Active	10.12 ± 2.12	19.89 ± 3.32
